Data published in patent publication US10556879B2, “Retinoid compound, preparation method therefor, intermediates thereof and application thereof” (SHANGHAI INSTITUTE OF ORGANIC CHEMISTRY, CHINESE ACADEMY OF …, priority 2016, dated 2020).
Where “and” joins values, the source holds several entries; their conditions need not be identical. Identical values can stand only once. Entries after “also recorded” stand apart in the source; their conditions may differ. Like-named read-outs stand apart in the source and are kept apart here.

Key:
B16-F1 melanoma cells = assay: In vitro effect on B16-F1 melanoma cells (proliferation, apoptosis) in the toxicity study; format: cell-based; conditions: 10 μM
Protocol: (§1) The 3T3 mouse embryonic fibroblast cells and B16-F1 melanoma cells were used as the model to study in vitro toxicity of WYC-209 and WYC-331 respectively. The effect of compound WYC-209 and WYC-331 on the proliferation of 3T3 mouse embryonic fibroblast cells and B16-F1 melanoma cells were studied at a concentration of 10 μM.

[1] = system: 3T3 mouse embryonic fibroblast cells; assay: In vitro toxicity on normal cells (proliferation, apoptosis); format: cell-based; conditions: 10 μM
Protocol: as §1

[2] = system: tumor-repopulating cells of A2780 ovarian cancer; assay: Inhibition of proliferation of tumor-repopulating cells, colony tumor volume in 3D fibrin gel; format: cell-based, human; conditions: A2780 TRCs
Protocol: (§2) Therefore, we further studied the inhibitory activity of this compound against tumor-repopulating cells of six other kinds of human tumor, including A549 lung cancer cell, MCF-7 breast cancer cell, MDA-MB-435S melanoma cell, A2780 ovarian cancer cell, Hs-746T gastric cancer cell, MDA-MB-231 breast cancer cell.
(§3) The above cancer cells were incubated with 3D fibrin gel medium (90-Pa) for 5 days, and the desired tumor-repopulating cells were screened. Subsequently, the culture medium was respectively treated with collagenase and neutral protease II, and the tumor-repopulating cells of B16-F1 melanoma were released, then the obtained repopulating cells were transferred to a freshly prepared medium to be resuspended and maintained at single-cell state. The tumor-repopulating cells of individual tumor were inoculated in 3D fibrin gel medium (90-Pa) for 5 days, with 0.1% DMSO as the negative control group (represented by DMSO group in FIGS. 3-8), the drug-free group as vehicle control group (represented by None group in FIGS. 3-8), and the study was performed by beginning administrating on the day 0 and the 3rd day respectively, and the colony tumor volume was measured and calculated.
as §3, with “The above human tumor cells were” for “The above cancer cells were”, “cells of B16-F1 melanoma were inoculated” for “cells of individual tumor were inoculated”, “group in FIG. 9), the drug-free” for “group in FIGS. 3-8), the drug-free”, “measured and calculated, beginning administrating from the 3rd day at a concentration of 0.1 μM, 1.0 μM, and 10 μM respectively, the colony tumor volume was measured and calculated.” for “measured and calculated.”

[3] = system: tumor-repopulating cells of MDA-MB-231 breast cancer; assay: as above; format: cell-based, human; conditions: MDA-MB-231 TRCs
Protocol: as §2, §3
as §3, with “The above human tumor cells were” for “The above cancer cells were”, “cells of B16-F1 melanoma were inoculated” for “cells of individual tumor were inoculated”, “group in FIG. 9), the drug-free” for “group in FIGS. 3-8), the drug-free”, “measured and calculated, beginning administrating from the 3rd day at a concentration of 0.1 μM, 1.0 μM, and 10 μM respectively, the colony tumor volume was measured and calculated.” for “measured and calculated.”

[4] = system: B16-F1 metastatic melanoma in the lung; assay: B16-F1 metastatic melanoma in the lung model, 30,000 tumor-repopulating cells via tail vein (WYC-209); format: in vivo, mice (C57BL/6); conditions: for mice that suffered pulmonary metastatic melanoma: 30th day, 8 mice
Protocol: This experiment was performed to study whether WYC-209 could inhibit the metastasis of melanoma to the lung thus prevent secondary tumorigenesis. The B16-F1 cells were incubated with 3D fibrin gel medium (90-Pa) for 5 days, and the desired tumor-repopulating cells were screened. Subsequently, the culture medium was respectively treated with collagenase and neutral protease II, and the tumor-repopulating cells were released, then the obtained repopulating cells were transferred to a freshly prepared medium to be re-suspended and maintained at single-cell state. Then 24 immunocompetent mice (C57BL/6, female, 6-8 weeks) were randomly selected and divided into three groups which were respectively low-dose group (1.0 μM), high-dose group (10 μM) and DMSO negative control group, with 8 mice per group. Subsequently, the mice were injected via the tail vein with 30,000 tumor-repopulating cells of melanoma to establish a B16-F1 metastatic melanoma model in the mouse. Subsequently, Mice were administered via tail vein injection based on the body weight and the blood volume of the mice. From the 5th day on, mice in the treatment group were administrated with WYC-209 once every 2 days at a blood concentration of 1.0 μM and 10 μM; mice in the DMSO group was administered with 0.1% DMSO in a same route of administration as negative control. At this time, there was no significant difference in the body weight between the groups, the mice were fed normally, observing the survival of the mice.

[5] = system: tumor-repopulating cells of MDA-MB-435S melanoma; assay: Inhibition of proliferation of tumor-repopulating cells, colony tumor volume in 3D fibrin gel; format: cell-based, human; conditions: MDA-MB-435S TRCs
Protocol: as §2, §3

[6] = system: tumor-repopulating cells of Hs-746T gastric cancer; assay: as above; format: cell-based, human; conditions: Hs-746T TRCs
Protocol: as §2, §3

[7] = system: tumor-repopulating cells of MCF-7 breast cancer; assay: as above; format: cell-based, human; conditions: MCF-7 TRCs
Protocol: as §2, §3

[8] = system: tumor-repopulating cells of A549 lung cancer; assay: as above; format: cell-based, human; conditions: A549 TRCs
Protocol: as §2, §3

[9] = system: tumor-repopulating cells of B16-F1 melanoma; assay: Inhibitory activity on proliferation of tumor-repopulating cells (TRCs) of B16-F1 melanoma in 3D fibrin gel; format: cell-based; conditions: for IC50: colony tumor volume, read-out: IC50 of inhibition on TRCs of B16-F1 melanoma/μM

## CCOC(=O)c1cnc(C#Cc2ccc3c(c2)C(C)(C)CC[S+]3[O-])nc1 (stereo not shown) [WYC-209, ethyl 2-((4,4-dimethyl-1-oxothiochroman-6-yl)ethynyl)pyrimidin-5-carboxylate]
B16-F1 melanoma cells
  effect on proliferation of B16-F1 melanoma cells: significantly block the growth
  induction of apoptosis of B16-F1 melanoma cells: significant cell apoptosis
[1]
  effect on proliferation of 3T3 mouse embryonic fibroblast cells: did not affect the proliferation; also recorded: no effect on the growth of 3T3 cell clones
  induction of apoptosis of 3T3 mouse embryonic fibroblast cells: did not induce apoptosis; also recorded: could not induce apoptosis
[2]; 1.0 μM
  volume of tumor colony relative to None group: 25-30%
[2]; 10 μM
  volume of colony tumor relative to None group: less than 10%
[3]; 1.0 μM
  volume of tumor colony relative to None group: 25-30%
[3]; 10 μM
  volume of colony tumor relative to None group: less than 10%
[4]; 1.0 μM treatment group
  abnormalities in the liver and stomach: no abnormalities found in the liver and stomach
  mice that suffered pulmonary metastatic melanoma: 50%
[4]; 10 μM treatment group
  abnormalities in the liver and stomach: no abnormalities found in the liver and stomach
  mice that suffered pulmonary metastatic melanoma: 12.5%
[4]; blood concentration 1.0 μM
  efficiency of preventing metastasis of repopulating cells of melanoma to the lung: 50%
[4]; blood concentration 10 μM
  efficiency of preventing metastasis of repopulating cells of melanoma to the lung: 87.5% and 87%
[4]; whole experiment
  toxic side effects: no obvious toxic side effects
[5]; 1.0 μM
  volume of tumor colony relative to None group: 25-30%
[5]; 10 μM
  volume of colony tumor relative to None group: less than 10%
[6]
  growth trend of colony tumor: reverse the growth trend of colony tumor
[6]; 1.0 μM
  volume of tumor colony relative to None group: 25-30%
[6]; 10 μM
  volume of colony tumor relative to None group: less than 10%
[7]; 1.0 μM
  volume of tumor colony relative to None group: 25-30%
[7]; 10 μM
  volume of colony tumor relative to None group: less than 10%
[8]; 1.0 μM
  volume of tumor colony relative to None group: 25-30%
[8]; 10 μM
  volume of colony tumor relative to None group: less than 10%
[9]; Mus musculus, B16-F1, 120 h, 10 μM, incubated 5 days, colony tumor size, read-out: Inhibition rate on TRCs of B16-F1 melanoma at a concentration of 10 μM (%)
  inhibition at 10 µM: 98.8%
[9]; Mus musculus, B16-F1, dose-response curve
  IC50: 0.25 µM
[9]; Mus musculus, B16-F1, 10 μM (Table 3), read-out: Inhibition rate on TRCs of B16-F1 melanoma at a concentration of 10 μM/%
  inhibition at 10 µM: 98.8%
[9]; dose-response curve
  IC50: 0.19 µM
